Measured values reported in ChEMBL document CHEMBL1201862, “PubChem BioAssay data set” (2004).
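Where inhibition never reached the appropriate level, the endpoint shown equals the highest concentration tested. Otherwise, values were interpolated linearly from a five-concentration, 48-hour dose response in 96-well plates. GI50 is the concentration that inhibits growth by half.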 The source made the active and inactive calls. Cut-off read from the data, not from the text of the source: active = GI50 up to about 1.1 µM and inactive = higher.

Key:
Assay in all cases: NCI anticancer screen, dose series, 48 h
[1] = tested on: RPMI-8226
[2] = tested on: SF-539
[3] = tested on: SK-MEL-5
[4] = tested on: HCT-116
[5] = tested on: Hs-578T
[6] = tested on: MDA-MB-435
[7] = tested on: HOP-62
[8] = tested on: NCI-H460
[9] = tested on: PC-3
[10] = tested on: 786-0
[11] = tested on: HCC 2998
[12] = tested on: OVCAR-3
[13] = tested on: KM12
[14] = tested on: MDA-MB-231
[15] = tested on: CCRF-CEM
[16] = tested on: SN12C
[17] = tested on: DU-145
[18] = tested on: SR
[19] = tested on: SK-MEL-2
[20] = tested on: NCI-H226

SMILES: NC(=S)N/N=C1\CCCC1C(O)(C(F)(F)Cl)C(F)(F)Cl (configuration not stated)
- GI50 [1]: > 10 µM (inactive)
- GI50 [2]: > 10 µM (inactive)
- GI50 [3]: 2.01 µM (inactive)
- GI50 [4]: > 10 µM (inactive)
- GI50 [5]: > 10 µM (inactive)
- GI50 [6]: > 10 µM (inactive)
- GI50 [7]: > 10 µM (inactive)
- GI50 [8]: > 10 µM (inactive)
- GI50 [9]: > 10 µM (inactive)
- GI50 [10]: > 10 µM (inactive)
- GI50 [11]: > 10 µM (inactive)
- GI50 [12]: > 10 µM (inactive)
- GI50 [13]: > 10 µM (inactive)
- GI50 [14]: > 10 µM (inactive)
- GI50 [15]: > 10 µM (inactive)
- GI50 [16]: > 10 µM (inactive)
- GI50 [17]: > 10 µM (inactive)
- GI50 [18]: > 10 µM (inactive)
- GI50 [19]: > 10 µM (inactive)
- GI50 [20]: > 10 µM (inactive)

SMILES: O=P(Oc1ccccc1)(Oc1ccccc1)Oc1c[nH]c2ccccc12
- GI50 [1]: 0.103 µM (active)
- GI50 [2]: 11.4 µM (inactive)
- GI50 [3]: 11.3 µM (inactive)
- GI50 [4]: 15.2 µM (inactive)
- GI50 [5]: 13.3 µM (inactive)
- GI50 [6]: 12.2 µM (inactive)
- GI50 [7]: 14.9 µM (inactive)
- GI50 [8]: 12.8 µM (inactive)
- GI50 [9]: 0.847 µM (active)
- GI50 [10]: 15.5 µM (inactive)
- GI50 [11]: 1.95 µM (inactive)
- GI50 [12]: 14.5 µM (inactive)
- GI50 [13]: 19.4 µM (inactive)
- GI50 [14]: 11.4 µM (inactive)
- GI50 [15]: 0.141 µM (active)
- GI50 [16]: 11.6 µM (inactive)
- GI50 [17]: 36.6 µM (inactive)
- GI50 [18]: 25.4 µM (inactive)
- GI50 [19]: 5.47 µM (inactive)
- GI50 [20]: 9.68 µM (inactive)

SMILES: C=CCN(c1cc(OC)c2c(c1[N+](=O)[O-])C(C)(SC)C(=O)N2)S(C)(=O)=O (configuration not stated)
- GI50 [1]: 94 µM (inactive)
- GI50 [2]: > 100 µM (inactive)
- GI50 [3]: > 100 µM (inactive)
- GI50 [4]: > 100 µM (inactive)
- GI50 [5]: 55.5 µM (inactive)
- GI50 [6]: > 100 µM (inactive)
- GI50 [8]: > 100 µM (inactive)
- GI50 [9]: > 100 µM (inactive)
- GI50 [10]: 87.7 µM (inactive)
- GI50 [11]: 65.5 µM (inactive)
- GI50 [13]: > 100 µM (inactive)
- GI50 [14]: > 100 µM (inactive)
- GI50 [16]: > 100 µM (inactive)
- GI50 [17]: > 100 µM (inactive)
- GI50 [18]: 31.8 µM (inactive)
- GI50 [19]: > 100 µM (inactive)
- GI50 [20]: > 100 µM (inactive)

SMILES: C=C1CCC[C@@H](C)C(O)[C@@H]2OC(=O)C(=C)[C@@H]2C[C@@H](OC(C)=O)[C@@]2(C)CC[C@@H]1O2 (some centres not stated)
- GI50 [1]: 8.85 µM (inactive)
- GI50 [2]: 7.98 µM (inactive)
- GI50 [3]: 6.92 µM (inactive)
- GI50 [4]: 6.97 µM (inactive)
- GI50 [5]: 8.67 µM (inactive)
- GI50 [6]: 7.71 µM (inactive)
- GI50 [7]: 8.09 µM (inactive)
- GI50 [9]: 8.39 µM (inactive)
- GI50 [10]: 8.95 µM (inactive)
- GI50 [11]: 7.89 µM (inactive)
- GI50 [12]: 5.37 µM (inactive)
- GI50 [13]: 7.76 µM (inactive)
- GI50 [14]: 8.36 µM (inactive)
- GI50 [15]: 1.54 µM (inactive)
- GI50 [16]: 8.51 µM (inactive)
- GI50 [17]: 7.66 µM (inactive)
- GI50 [18]: 1.75 µM (inactive)
- GI50 [19]: 8.34 µM (inactive)
- GI50 [20]: 8.49 µM (inactive)

SMILES: c1ccc(-c2nnn(CCN3CCCCC3)n2)cc1
- GI50 [1]: > 100 µM (inactive)
- GI50 [3]: > 100 µM (inactive)
- GI50 [4]: > 100 µM (inactive)
- GI50 [5]: > 100 µM (inactive)
- GI50 [6]: > 100 µM (inactive)
- GI50 [7]: > 100 µM (inactive)
- GI50 [8]: > 100 µM (inactive)
- GI50 [9]: > 100 µM (inactive)
- GI50 [10]: > 100 µM (inactive)
- GI50 [11]: > 100 µM (inactive)
- GI50 [12]: > 100 µM (inactive)
- GI50 [13]: > 100 µM (inactive)
- GI50 [14]: > 100 µM (inactive)
- GI50 [15]: > 100 µM (inactive)
- GI50 [16]: > 100 µM (inactive)
- GI50 [17]: > 100 µM (inactive)
- GI50 [18]: > 100 µM (inactive)
- GI50 [19]: > 100 µM (inactive)
- GI50 [20]: > 100 µM (inactive)

SMILES: CN(C)c1ccc(/C=C2\C[C@H]3[C@@H]4CC=C5C[C@@H](N6CCCC6)CC[C@]5(C)[C@H]4CC[C@]3(C)[C@H]2O)cc1
- GI50 [1]: 0.973 µM (active)
- GI50 [2]: 3.78 µM (inactive)
- GI50 [3]: 0.923 µM (active)
- GI50 [4]: 0.897 µM (active)
- GI50 [5]: 0.883 µM (active)
- GI50 [6]: 1.35 µM (inactive)
- GI50 [7]: 1.71 µM (inactive)
- GI50 [8]: 1.48 µM (inactive)
- GI50 [9]: 2.18 µM (inactive)
- GI50 [10]: 0.659 µM (active)
- GI50 [11]: 0.91 µM (active)
- GI50 [12]: 1.15 µM (inactive)
- GI50 [13]: 2.24 µM (inactive)
- GI50 [14]: 0.973 µM (active)
- GI50 [16]: 1.22 µM (inactive)
- GI50 [17]: 3.05 µM (inactive)
- GI50 [18]: 0.773 µM (active)
- GI50 [19]: 1.07 µM (active)
- GI50 [20]: 0.813 µM (active)

SMILES: CSc1c(C#N)c(N)n(-c2ccc(Cl)cc2)c(=O)c1C#N
- GI50 [1]: > 100 µM (inactive)
- GI50 [2]: > 100 µM (inactive)
- GI50 [3]: > 100 µM (inactive)
- GI50 [4]: > 100 µM (inactive)
- GI50 [5]: > 100 µM (inactive)
- GI50 [6]: > 100 µM (inactive)
- GI50 [8]: > 100 µM (inactive)
- GI50 [9]: > 100 µM (inactive)
- GI50 [10]: > 100 µM (inactive)
- GI50 [11]: > 100 µM (inactive)
- GI50 [12]: > 100 µM (inactive)
- GI50 [13]: > 100 µM (inactive)
- GI50 [14]: > 100 µM (inactive)
- GI50 [16]: > 100 µM (inactive)
- GI50 [17]: > 100 µM (inactive)
- GI50 [18]: 42.8 µM (inactive)
- GI50 [19]: > 100 µM (inactive)
- GI50 [20]: 59.7 µM (inactive)
